Source: patent US20080255104A1, “Nsaid Compositions” (EQUITECH CORPORATION, priority 2004, published 2008)
In brackets after ≈: the same amount, converted by molar mass. Marks after values point to notes of the source that are not given here.

Key:
[1] = 200 mg and 600 mg doses, dental surgery; cited from earlier work
[2] = Oral bioavailability of ibuprofen crushed tablets in control and vagal-suppressed (Pain Model) rats; format: in vivo, Sprague-Dawley rats; conditions: Pain Model (vagal-suppressed, propantheline) rats, 20 mg/kg oral
Description: Delayed absorption caused by vagal suppression that has previously been reported in the literature (e.g., Jamali & Axelson, 1997) was used to test the absorption rates of new meloxicam formulations.
The animal models are adult male Sprague-Dawley rats with body weight of 250-300 g, and which were cared for in accordance with the principles and guidelines of the Canadian Council of Animal Care. All rats were catheterized in the right jugular vein for sample collection.
An animal model having suppressed vagal properties were produced by administering (intraperitoneal injection) to the rats two 20 mg/kg doses of propantheline (test, n=6), an anticholinergic agent with known vagal suppressive properties, the first dose at 2 hours prior to administration of an NSAID, and the second at 1 hour prior.
The tablets were crushed gently and small pieces were administered into the stomach via a plastic tube followed by 0.5 mL tap water. Animals were fasted after the first dose of propantheline until 4 hours post-meloxicam dose. They had free access to water.

[3] = Solubility of meloxicam in simulated gastric fluid pH 1.2; format: physicochemical; conditions: for solubility at 72 h: simulated gastric fluid, pH 1.2, simulated gastric fluid, thermodynamic from solid
Protocol: Excess of different compositions and pure meloxicam powder were transferred into test tubes.
10 ml of USP simulated gastric fluid, pH 1.2 (SGF) was added.
Samples were shaken for 72 h at room temperature.
Filtered solutions were analyzed for meloxicam.

[4] = pH 2-4; cited from earlier work

Structure (SMILES) | delay in the mean time to peak concentration caused by surgery [1] | AUC (0-8) [2] | Cmax [2] | Tmax [2] | solubility in simulated gastric fluid when loaded on Neusilin® and mixed with Gelucire® 44/14 ([3]; pH 1.2, FIG. 7) | solubility at 72 h ([3]; pH 1.2, combination of Gelucire® and Neusilin®) | solubility at 72 h ([3]; pH 1.2, meloxicam alone) | solubility at 72 h ([3]; pH 1.2, with Gelucire® alone) | solubility at 72 h ([3]; pH 1.2, with the metal silicate alone) | minimum solubility in buffered aqueous systems [4]
CC(C)Cc1ccc(C(C)C(=O)O)cc1 (racemic) [ibuprofen] | two | 81.8 μg/h/mL^−1 | 13.8* μg/mL | 45 min |  |  |  |  |  | 
Cc1cnc(NC(=O)C2=C(O)c3ccccc3S(=O)(=O)N2C)s1 [meloxicam] |  |  |  |  | substantially increased | 11500 µg/mL | 7 µg/mL (≈ 19.9 µM) | 10 µg/mL (≈ 28.5 µM) | 23 to 41 µg/mL (≈ 65.5 to 117 µM) | less than 0.5 µg/ml
